Results: patent US20210277009A1, “PRMT5 INHIBITORS” (Merck Sharp & Dohme Corp., priority 2018, published 2021)
Counter-ions that a name gives are not always drawn. Like-named read-outs stand apart in the source and are kept apart here.

Experiments:
[1] = system: symmetric dimethylation of arginine (SDMA) of PRMT5 substrates in MCF-7 cells; assay: PRMT5 Cell Target Engagement (TE) Assay; format: cell-based; settings: treated for 3 days, nuclear SDMA by high content imaging, top concentration 10000 nM
Text: The PRMT5 TE assay is a biomarker assay for identifying compounds that inhibit symmetric dimethylation of arginine (SDMA) of PRMT5 substrates. The following substrates have been reported for PRMT5: histone H2A and H4 R3, Histone H3 R2, Histone H3 R8, spliceosome Sm proteins, ribosomal protein RPS10, p53, FEN1, nudeoplasmin, nucleolin, EGFR and EBNA. The assay will focus on detecting symmetrically dimethylated nuclear proteins using high content imaging technology. Detection of the expression of symmetrically dimethylated nuclear proteins is through a mixture of primary rabbit monoclonal antibodies to SDMA (CST 13222), which in turn recognized by an Alexafluor 488 dye-conjugated anti-rabbit IgG secondary antibody. The IN Cell Analyzer 2200 or Opera-Phenix measures nuclear Alexafluor 488 fluorescent dye intensity that is directly related to the level of expression of symmetrically dimethylated nuclear proteins at the single cell level. Nuclear AF488 dye intensities are compared to the mean value for DMSO treated cells (MIN) to report percent of inhibition for each compound-treated well.
In this assay, the cell potency (EC50) of each compound was determined from a ten point (1:3 serial dilution; top compound concentration of 10000 nM) titration curve using the following outlined procedure. Each well of a BD falcon collagen coated black/clear bottom 384-well plate was seeded with 4000 MCF-7 cells in 30 μl media and allowed to attach for 5 h. Media is ATCC-formulated Eagle's Minimum Essential Medium, Catalog No. 30-2003. To make the complete growth medium, the following components were added to the base medium: 0.01 mg/ml human recombinant insulin; fetal bovine serum to a final concentration of 10%. Additional 30 μl of media containing 2× compounds were added to each well. Cells were treated for 3 days in 37° C. CO2 incubator. On day 3, cells were fixed with Cytofix, permeablized with 0.4% Triton-X-100/Cytofix, and washed with D-PBS without Ca/Mg. Cells were blocked with Licor Odessey blocking reagent for 1 h at room temperature, followed by incubation with anti-SDMA (1:1000) antibody at 4° C. overnight. 1° antibody was removed, followed by three washings with DPBS without Ca/Mg and 0.05% Tween20. Hoechst (5 μg/ml), Cell Mask deep stain (1:2000) and Alexa488-conjugated goat anti-rabbit IgG (2 μg/mL) was added for 1 hour at room temperature. A final washing step (three washes) was performed before sealing plate for imaging on In Cell Analyzer 2200 or Opera-Phenix. Images from analyzer were uploaded to Columbus (at WP or BOS) for image analysis. IC50 values were determined by 4 parameters robust fit of percent fluorescence units vs. (Logic) compound concentrations.

[2] = target: T1, PRMT5-MEP50 enzyme complex (Homo sapiens, UniProt O14744); assay: PRMT5-MEP50 Enzyme Methylation Assay; format: biochemical
T1 construct: 1.25 nM of Full-length (FL)-PRMT5-MEP50 enzyme complex; made in house; host or cells: baculovirus-transfected Sf21 cells
T1 sequence (O14744 whole entry): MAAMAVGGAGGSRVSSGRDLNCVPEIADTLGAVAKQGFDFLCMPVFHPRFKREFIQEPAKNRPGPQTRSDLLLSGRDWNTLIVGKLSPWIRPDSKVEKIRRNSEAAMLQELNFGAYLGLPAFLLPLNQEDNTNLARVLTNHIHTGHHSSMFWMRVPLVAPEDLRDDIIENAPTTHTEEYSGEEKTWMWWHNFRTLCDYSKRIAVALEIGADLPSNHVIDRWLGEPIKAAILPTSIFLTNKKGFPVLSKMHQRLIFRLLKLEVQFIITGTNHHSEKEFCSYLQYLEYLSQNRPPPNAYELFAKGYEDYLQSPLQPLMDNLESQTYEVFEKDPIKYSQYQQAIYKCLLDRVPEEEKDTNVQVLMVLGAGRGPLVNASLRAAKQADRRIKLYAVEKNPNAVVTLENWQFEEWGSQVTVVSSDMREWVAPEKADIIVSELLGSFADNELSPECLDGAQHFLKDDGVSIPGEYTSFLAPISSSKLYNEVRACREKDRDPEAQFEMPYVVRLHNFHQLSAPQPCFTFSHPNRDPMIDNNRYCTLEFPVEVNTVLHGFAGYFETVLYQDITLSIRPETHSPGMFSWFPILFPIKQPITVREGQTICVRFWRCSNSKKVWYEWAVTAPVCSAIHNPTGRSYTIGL
T1 sequence (Q9BQA1 whole entry partner): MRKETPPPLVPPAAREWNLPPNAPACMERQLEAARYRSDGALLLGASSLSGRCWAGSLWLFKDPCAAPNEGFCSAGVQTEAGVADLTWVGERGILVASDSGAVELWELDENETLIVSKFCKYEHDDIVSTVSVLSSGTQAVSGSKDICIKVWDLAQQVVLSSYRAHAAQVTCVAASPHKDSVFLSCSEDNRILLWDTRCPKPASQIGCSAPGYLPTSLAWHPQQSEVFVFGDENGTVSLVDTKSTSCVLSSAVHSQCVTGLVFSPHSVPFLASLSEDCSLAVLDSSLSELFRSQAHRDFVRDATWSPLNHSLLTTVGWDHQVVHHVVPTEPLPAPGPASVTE
Method: PRMT5-MEP50 biochemical assay is a direct measurement of the methylation activity of the enzyme complex on a short peptide substrate derived from the N-terminus of H4 histone. Methylation experiment is performed with recombinant PRMT5-MEP50 protein complex. The assessment of inhibitory effect of small molecules is measured by tire effectiveness of the compounds to inhibit tins reaction (EC50).
In this assay, the potency (EC50) of each compound was determined from a twenty-point (1:2 serial dilution; top compound concentration of 100000 nM) titration curve using the following outlined procedure. To each well of a white ProxiPlus 384 well-plate, 100 nL of compound (1% DMSO in final assay volume of 10 μL) was dispensed, followed by the addition of 8 μL of 1× assay buffer (50 mM Bicine pH 8.0, 1 mM DTT, 0.004% Tween20, 0.01% BSA) containing 1.25 nM of Full-length (FL)-PRMT5-MEP50 enzyme complex (recombinant proteins from baculovirus-transfected Sf21 cells: FL-PRMT5; MW=[…] and FL-MEP50; MW=38614) and 1 μL of 150 μM S-(5′-Adenosyl)-L-Methionine Chloride (SAM). Plates were sealed and placed in a 37° C. humidified chamber for a 60 minutes pre-incubation with compound. Subsequently, each reaction was initiated by the addition of 1 μL 1× assay buffer containing 750 nM biotinylated H4R3(Mel) peptide. The final reaction in each well of 10 μL consists of 1.0 nM PRMT5-MEP50, 75 nM biotinylated-peptide, and […] SAM. Methylation reactions were allowed to proceed for 150 minutes in a sealed plate at 37° C. Reactions were immediately quenched by the addition of 1 μL of 5% formic acid. Plates were then frozen and shipped to SAMDITM Tech Inc. to determine the percent conversion from H4R3(Mel) to H4R3(Me2). Dose-response curves were generated by plotting percent effect (% product conversion; Y-axis) vs. Log 10 compound concentrations (X-axis). EC50 values were determined by non-linear regression according to models for either sigmoidal (4 parameters) or biphasic (7 parameters) dose-response curves.

[3] = single EC50 from 4 parameters single site sigmoidal model, or first EC50 of 7 parameters biphasic model, 1.0 nM PRMT5-MEP50, H4R3(Me1) peptide, SAM, read-out: Enzyme Methylation Assay (EC50 or EC50_1)
[4] = second EC50 of 7 parameters biphasic model, read-out: Enzyme Methylation Assay (EC50_2)

EC50 ([1]; Homo sapiens, MCF7, 72 h)	EC50 [2, 3]	EC50 [2, 4]	EC50 [1]	Structure (SMILES)
0.7 nM	0.3 nM	–	–	Nc1ccc2ccc(CC[C@H]3S[C@@H](n4ccc5c(N)ncnc54)[C@H](O)[C@@H]3O)cc2n1 [Example 14, (2R,3R,4S,5R)-2-(4-amino-7H-pyrrolo[2,3-d]pyrimidin-7-yl)-5-(2-(2-aminoquinolin-7-yl)ethyl)tetrahydrothiophene-3,4-diol TFA salt]
1.4 nM	0.9 nM	–	–	Nc1ccc2ccc(CC[C@@H]3S[C@@H](n4ccc5c(N)ncnc54)[C@H](O)[C@@H]3O)cc2n1 [Example 15, (2R,3R,4S,5S)-2-(4-amino-7H-pyrrolo[2,3-d]pyrimidin-7-yl)-5-(2-(2-aminoquinolin-7-yl)ethyl)tetrahydrothiophene-3,4-diol]
1.6 nM	1.7 nM	–	–	Cc1ncnc2c1ccn2[C@@H]1S[C@@H](CCc2ccc3ccc(N)nc3c2)[C@@H](O)[C@H]1O [Example 16, (2S,3S,4R,5R)-2-[2-(2-aminoquinolin-7-yl)ethyl]-5-(4-methyl-7H-pyrrolo[2,3-d]pyrimidin-7-yl)tetrahydrothiophene-3,4-diol]
0.6 nM	0.4 nM	–	–	Cc1ncnc2c1ccn2[C@@H]1S[C@H](CCc2ccc3ccc(N)nc3c2)[C@@H](O)[C@H]1O [Example 17]
5 nM	2.2 nM	–	–	Cc1ncnc2c1ccn2[C@@H]1S[C@H](CCc2ccc3cc(Br)c(N)nc3c2)[C@@H](O)[C@H]1O [Example 18, (2R,3S,4R,5R)-2-(2-(2-amino-3-bromoquinolin-7-yl)ethyl)-5-(4-methyl-7H-pyrrolo[2,3-d]pyrimidin-7-yl)tetrahydrothiophene-3,4-diol]
8.4 nM	0.4 nM	50.1 nM	–	Cc1ncnc2c1ccn2[C@@H]1S[C@@H](CCc2ccc3cc(Br)c(N)nc3c2)[C@@H](O)[C@H]1O [Example 19]
741 nM	0.7 nM	120 nM	–	Cc1ncnc2c1ccn2[C@@H]1S[C@H](CCc2ccc3cc(C(F)(F)F)c(N)nc3c2)[C@@H](O)[C@H]1O [Example 20, (2R,3S,4R,5R)-2-{2-[2-amino-3-(triflnoromethyl)quinolin-7-yl]ethyl}-5-(4-methyl-7H-pyrrolo[2,3-d]pyrimidin-7-yl)tetrahydrothionhene-3,4-diol]
≥ 10000 nM	7.4 nM	–	–	Cc1ncnc2c1ccn2[C@@H]1S[C@@H](CCc2ccc3cc(C(F)(F)F)c(N)nc3c2)[C@@H](O)[C@H]1O [Example 21, (2S,3S,4R,5R)-2-{2-[2-amino-3-(trifluoromethyl)quinolin-7-yl]ethyl}-5-(4-methyl-7H-pyrrolo[2,3-d]pyrmidin-7-yl)tetrahydrothiophene-3,4-diol]
5.9 nM	10.1 nM	–	–	Cc1ncnc2c1ccn2[C@@H]1S[C@H](CCc2ccc3cc(F)c(N)nc3c2)[C@@H](O)[C@H]1O [Example 22, (2R,3S,4R,5R)-2-[2-(2-amino-3-fluoroquinolin-7-yl)ethyl]-5-(4-methyl-7H-pyrrolo[2,3-d]pyrimidin-7-yl)tetrahydrodrothiophene-3,4-diol]
41.9 nM	58.3 nM	–	–	Cc1ncnc2c1ccn2[C@@H]1S[C@@H](CCc2ccc3cc(F)c(N)nc3c2)[C@@H](O)[C@H]1O [Example 23, (2S,3S,4R,5R)-2-[2-(2-amino-3-fluoroquinolin-7-yl)ethyl]-5-(4-methyl-7H-pyrrolo[2,3-d]pyrimidin-7-yl)tetrahydrothiophene-3,4-diol]
17.4 nM	1.5 nM	–	–	Cc1ncnc2c1ccn2[C@@H]1S[C@H](CCc2ccc3cc(Cl)c(N)nc3c2)[C@@H](O)[C@H]1O [Example 24]
8.4 nM	1.3 nM	–	–	Cc1ncnc2c1ccn2[C@@H]1S[C@@H](CCc2ccc3cc(Cl)c(N)nc3c2)[C@@H](O)[C@H]1O [Example 25, (2S,3S,4R,5R)-2-[2-(2-amino-3-chloroquinolin-7-yl)ethyl]-5-(4-methy1-7H-pyrrolo[2,3-d]pyrimidin-7-yl)tetrahydrothiophene-3,4-diol]
–	59.6 nM	–	10.5 nM	Cc1ncnc2c1ccn2[C@@H]1S[C@H](CCc2ccc3ccc(NCC(F)F)nc3c2)[C@@H](O)[C@H]1O [Example 26, (2R,3S,4R,5R)-2-(2-{2-[(2,2-difluoroethyl)amino]quinolin-7-yl}ethyl)-5-(4-methyl-7H-pyrrolo[2,3-d]pyrimidin-7-yl)tetrahydrothiophene-3,4-diol]
0.5 nM	0.3 nM	–	–	C[C@]1(CCc2ccc3cc(Br)c(N)nc3c2)S[C@@H](n2ccc3c(N)ncnc32)[C@H](O)[C@@H]1O [Example 30]
53.4 nM	0.7 nM	–	–	C[C@]1(CCc2ccc3cc(Br)c(N)nc3c2)S[C@@H](n2ccc3c(Cl)ncnc32)[C@H](O)[C@@H]1O [Example 31, (2R,3S,4R,5R)-2-(2-(2-amino-3-bromoquinolin-7-yl)ethyl)-5-(4-chloro-7H-pyrrolo[2,3-d]pyrimidin-7-yl)-2-methyltetrahydrothiophene-3,4-diol]
5.6 nM	0.6 nM	–	–	Cc1ncnc2c1ccn2[C@@H]1S[C@](C)(CCc2ccc3cc(Br)c(N)nc3c2)[C@@H](O)[C@H]1O [Example 32]
13.5 nM	0.8 nM	–	–	CNc1ncnc2c1ccn2[C@@H]1S[C@](C)(CCc2ccc3cc(Br)c(N)nc3c2)[C@@H](O)[C@H]1O [Example 33, (2R,3S,4R,5R)-2-(2-(2-amino-3-bromoquinolin-7-yl)ethyl)-2-methyl-5-(4-(methylamino)-7H-pyrrolo[2,3-d]pyrimidin-7-yl)tetrahydrothiophene-3,4-diol]
29.1 nM	0.5 nM	151 nM	–	Cc1cn([C@@H]2S[C@H](CCc3ccc4cc(Br)c(N)nc4c3)[C@@H](O)[C@H]2O)c2ncnc(N)c12 [Example 34, (2R,3S,4R,5R)-2-(2-(2-amino-3-bromoquinolin-7-yl)ethyl)-5-(4-amino-5-methyl-7H-pyrrolo[2,3-d]pyrimidin-7-yl)tetrahydrothiophene-3,4-diol]
35.6 nM	1.7 nM	–	–	Cc1nc(N)c2ccn([C@@H]3S[C@H](CCc4ccc5cc(Br)c(N)nc5c4)[C@@H](O)[C@H]3O)c2n1 [Example 35, (2R,3R,4S,5R)-2-(4-amino-2-methyl-7H-pyrrolo[2,3-d]pyrimidin-7-yl)-5-(2-(2-amino-3-bromoquinolin-7-yl)ethyl)tetrahydrothiophene-3,4-diol]
81.1 nM	0.6 nM	15.3 nM	–	CNc1ncnc2c1ccn2[C@@H]1S[C@H](CCc2ccc3cc(Br)c(N)nc3c2)[C@@H](O)[C@H]1O [Example 36]
